The target in one data set is T1, PPARγ (Homo sapiens, UniProt P37231).
T1 sequence (P37231 238-505 limits assumed): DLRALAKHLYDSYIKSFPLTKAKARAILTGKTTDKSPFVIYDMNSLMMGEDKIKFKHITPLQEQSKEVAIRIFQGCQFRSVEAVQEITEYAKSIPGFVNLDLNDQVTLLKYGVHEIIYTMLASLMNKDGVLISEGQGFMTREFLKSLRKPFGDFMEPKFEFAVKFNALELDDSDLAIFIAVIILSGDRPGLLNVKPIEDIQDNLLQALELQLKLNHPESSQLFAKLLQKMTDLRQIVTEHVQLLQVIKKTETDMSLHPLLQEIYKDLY
The data set is described as follows: Cross-curve PPAR transactivation test (PPARγ). The data set is classed as cell-based. The following applies: HeLN cells, Gal-hPPARγ, luciferase reporter; cross curves against reference agonist, Schild regression; n.a means not active; read-out: PPAR gamma Kd app. As to the method: (§1) The activation of PPAR receptors with an agonist (activator) in HeLN cells leads to the expression of a reporter gene, luciferase, which, in the presence of a substrate, generates light. The modulation of the PPAR receptors is measured by quantifying the luminescence produced after incubating the cells in the presence of a reference agonist. The ligands displace the agonist from its site. The measurement of the activity is performed by quantifying the light produced. This measurement makes it possible to determine the modulatory activity of the compounds according to the invention by determining the constant that is the affinity of the molecule for the PPAR receptor. Since this value can fluctuate depending on the basal activity and the expression of the receptor, it is referred to as Kd apparent (KdApp in nM).
(§2) To determine this constant, “cross curves” of the test product against a reference agonist are produced in a 96-well plate: 10 concentrations of the test product plus a concentration 0 are arranged in a line, and 7 concentrations of the agonist plus a concentration 0 are arranged in a column. This is 88 measurement points for 1 product and 1 receptor. The remaining 8 wells are used for repeatability controls.
(§3) Measurements are also taken for total agonist controls with the same products.
(§4) The HeLN cell lines used are stable transfectants containing the plasmids ERE-βGlob-Luc-SV-Neo (reporter gene) and PPAR (α, δ, γ) Gal-hPPAR. These cells are inoculated into 96-well plates at a rate of 10 000 cells per well in 100 μl of DMEM medium without phenol red and supplemented with 10% of defatted calf serum. The plates are then incubated at 37° C. and 7% CO2 for 16 hours.
(§5) The various dilutions of the test products and of the reference ligand are added at a rate of 5 μl per well. The plates are then incubated for 18 hours at 37° C. and 7% CO2. The culture medium is removed by turning over and 100 μl of a 1:1 PBS/luciferin mixture are added to each well. After 5 minutes, the plates are read by the luminescence detector.

The target of a further data set is T2, PPARδ (Homo sapiens, UniProt Q03181).
T2 sequence (Q03181 171-441 limits assumed): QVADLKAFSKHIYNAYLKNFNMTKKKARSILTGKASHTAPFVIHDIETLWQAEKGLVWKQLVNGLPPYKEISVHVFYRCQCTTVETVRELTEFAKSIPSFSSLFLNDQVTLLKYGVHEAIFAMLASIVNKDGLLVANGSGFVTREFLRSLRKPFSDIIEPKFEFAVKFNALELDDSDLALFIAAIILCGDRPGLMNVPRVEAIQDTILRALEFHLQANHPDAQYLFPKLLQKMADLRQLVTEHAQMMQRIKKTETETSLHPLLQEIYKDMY
The data set is described as follows: Cross-curve PPAR transactivation test (PPARδ). Format: cell-based. The settings on record: HeLN cells, Gal-hPPARδ, luciferase reporter; cross curves against reference agonist, Schild regression; n.a means not active; read-out: PPARs delta Kd app. As to the method: as §1, §2, §3, §4, §5
A general note: A reporter such as luciferase makes a cellular process visible.

The target of another data set is T3, PPARα (Homo sapiens, UniProt Q07869).
T3 sequence (Q07869 202-468 limits assumed): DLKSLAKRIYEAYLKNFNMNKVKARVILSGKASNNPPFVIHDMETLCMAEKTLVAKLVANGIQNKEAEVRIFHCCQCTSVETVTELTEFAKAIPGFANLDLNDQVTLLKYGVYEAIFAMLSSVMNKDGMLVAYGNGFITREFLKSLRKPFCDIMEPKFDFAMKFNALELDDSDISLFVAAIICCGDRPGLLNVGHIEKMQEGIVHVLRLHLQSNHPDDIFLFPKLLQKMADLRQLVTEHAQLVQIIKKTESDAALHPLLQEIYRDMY
The data set is described as follows: Cross-curve PPAR transactivation test (PPARα). Format: cell-based. The following applies: HeLN cells, Gal-hPPARα, luciferase reporter; cross curves against reference agonist, Schild regression; n.a means not active; read-out: PPAR alpha Kd app. As to the method: as §1, §2, §3, §4, §5

Data set [1] has as its system sebocytes obtained from rat preputial glands. The data set is described as follows: Rat sebocyte culture test. The data set is classed as cell-based. The settings on record: 120 h, 14C acetate-labelled lipids, 5 days incubation + 24 hours label, read-out: Triglycerides AC50. The text has this:
Sebocytes in culture obtained from rat preputial gland constitute a pertinent model for evaluating sebaceous function modulatory compounds as described by Rosenfield et al. (Mechanisms of androgen induction of sebocyte differentiation. Rosenfield R. L., Deplewski D., Kentsis A., Ciletti N., Dermatology, 1998; 196(1):43-6). This model has especially been used to characterize PPAR compounds with potential in dermatology (Rat preputial sebocyte differentiation involves peroxisome proliferator-activated receptors. Rosenfield R. L., Kentsis A., Deplewski D., Ciletti N., J. Invest. Dermatol., 1999 February; 112(2):226-32). These sebocytes have functional similarities close to those of human skin sebocytes (response to androgens and to anti-androgens, accumulation of specific sebum lipids, expression of specific markers of the sebaceous gland). The data resulting from this test are considered as pertinent of potential activity on the human sebaceous gland.
Protocol for culturing sebocytes obtained from rat preputial glands
The preputial glands are obtained from 10-week-old male rats. They are extracted under anesthesia with isoflurane, before euthanizing the animals. The glands are then digested enzymatically with trypsin (0.25% trypsin+collagenase H 1.5 mg/ml/gland). The cells are cultured for 24 hours in 24-well plates (37° C., 5% CO2) in DMEM culture medium supplemented with various factors, especially fetal calf serum (10%), glutamine (1%), a cocktail of antibiotics and anti-mycotic agents and insulin (5 μg/ml). The cells are then placed in Cellgro medium supplemented with various factors (Mediatech®) and the test compounds are then added in response doses (duplicate). After incubation for 5 days, 10 μl of radio labeled (^14C) acetate are added to the culture medium (0.2 μCi/μl, Amersham). The cells are incubated for 24 hours and then washed and recovered after digestion with trypsin. The radiolabelled lipids are then extracted using a methanol/dichloromethane mixture (1/2) and placed on a silica TLC plate (Merck®) using a loading robot. The lipids are then separated and quantified after revelation using a Phosphorimager (analysis by image analysis software). For each compound, the AC50 (concentration for which 50% of the effect of the compound is obtained) is determined. The results are expressed as nanomolar concentration for the following specific sebaceous gland lipids: Triglycerides and/or Cholesterol esters.

In general, melting point refers to the temperature of the solid-liquid transition. Consider `CCCCCCCNC(=O)N(C)c1cccc(-c2ccc(CCC(=O)O)cc2)c1` [Example 2, 3-[3′-(3-heptyl-1-methylureido)biphenyl-4-yl]propanoic acid], for which the melting point is 101 °C. For the same molecule, on PPARγ, the Kd came out at 2 nM. The Kd at PPARδ was found to be 500 nM.

On to `CN(C(=O)Nc1ccc(OCc2ccccc2)cc1)c1cccc(-c2ccc(CCC(=O)O)cc2)c1` [Example 13, 3-{3′-[3-(4-benzyloxyphenyl)-1-methylureido]biphenyl-4-yl}propanoic acid], for which the melting point is 173.5 to 175 °C. The Kd on PPARγ was found to be 2 nM. At PPARδ, the Kd was determined as 2000 nM.

The AC50 is the concentration at which the activity in the assay is half-maximal. For `CCCCCCCNC(=O)N(C)c1cccc(-c2ccc(CCC(=O)O)cc2OCCC(C)C)c1` [Example 16, 3-[3′-(3-heptyl-1-methylureido)-2-(3-methylbutoxy)biphenyl-4-yl]propanoic acid], the Kd was found to be 1 nM on PPARγ and 1000 nM at PPARα. In addition, in data set [1], the AC50 came to 0.008 nM.

Consider `CCCCCCCNC(=O)N(C)c1cccc(-c2ccc(CCC(=O)O)cc2OCCCC)c1` [Example 26, 3-[2-butoxy-3′-(3-heptyl-1-methylureido)biphenyl-4-yl]propanoic acid], for which the Kd at PPARγ came to 0.25 nM; on PPARα it was 250 nM; on PPARδ, 1000 nM. For the same molecule, the AC50 in data set [1] is 0.005 nM.

As to `CCCCCCCNC(=O)N(C)c1cccc(-c2ccc(CCC(=O)O)cc2OCCCC(F)(F)F)c1` [Example 38, 3-[3′-(3-heptyl-1-methylureido)-2-(4,4,4-trifluorobutoxy)biphenyl-4-yl]propanoic acid], the Kd on PPARγ was determined as 1 nM; on PPARα, 250 nM. In addition, the half-maximal activity concentration (AC50) in data set [1] stood at 0.006 nM.

Regarding `CCCCCNC(=O)N(C)c1cccc(-c2ccc(CCC(=O)O)cc2OCCCC)c1` [Example 41, 3-[2-butoxy-3′-(1-methyl-3-pentylureido)biphenyl-4-yl]propanoic acid], the Kd on PPARγ was 0.5 nM; on PPARα it was 60 nM; on PPARδ, 2000 nM. For the same molecule, the AC50 in data set [1] is 0.008 nM.

`CCCCCCCNC(=O)N(C)c1cccc(-c2ccc(CCC(=O)O)cc2OCc2ccc(F)cc2)c1` [Example 44, 3-[2-(4-fluorobenzyloxy)-3′-(3-heptyl-1-methylureido)biphenyl-4-yl]propanoic acid]: the Kd on PPARγ came to 1 nM; at PPARα, 1000 nM. Also, in data set [1], the AC50 stood at 0.008 nM.

For the origin of these results see patent US7863332B2, “Biaromatic compound activators of PPARγ receptors and cosmetic/pharmaceutical compositions comprised thereof” (Galderma Research & Development, priority 2004, dated 2011).
